Laboratory results published in ChEMBL document CHEMBL1201862, “PubChem BioAssay data set” (2004).
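Where inhibition never reached the appropriate level, the endpoint shown equals the highest concentration tested. Otherwise, values were interpolated linearly from a five-concentration, 48-hour dose response in 96-well plates. At the GI50, growth is halved.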 Activity calls are given as the source filed them. Cut-off read from the data, not from the text of the source: active = GI50 up to about 1.1 µM and inactive = higher.

Key:
Experiment in all cases: NCI-60 cell line screen, 48 h
[1] = tested on: U-251
[2] = tested on: MCF7
[3] = tested on: A549
[4] = tested on: TK-10
[5] = tested on: EKVX
[6] = tested on: HCT-15
[7] = tested on: KM12
[8] = tested on: SF-539
[9] = tested on: SF-268
[10] = tested on: SR
[11] = tested on: SK-MEL-5
[12] = tested on: ACHN
[13] = tested on: SK-MEL-28
[14] = tested on: SW-620
[15] = tested on: M14
[16] = tested on: OVCAR-5
[17] = tested on: OVCAR-8
[18] = tested on: SNB-19
[19] = tested on: SK-MEL-2
[20] = tested on: OVCAR-3

SMILES | GI50 [1] | GI50 [2] | GI50 [3] | GI50 [4] | GI50 [5] | GI50 [6] | GI50 [7] | GI50 [8] | GI50 [9] | GI50 [10] | GI50 [11] | GI50 [12] | GI50 [13] | GI50 [14] | GI50 [15] | GI50 [16] | GI50 [17] | GI50 [18] | GI50 [19] | GI50 [20]
O=C(O)[C@@]1(Cc2ccc(O)cc2)C[C@@H]2Cc3ccccc3N2N1 | > 100 µM (inactive) | > 100 µM (inactive) | > 100 µM (inactive) | > 100 µM (inactive) | > 100 µM (inactive) | > 100 µM | > 100 µM (inactive) | > 100 µM (inactive) | > 100 µM (inactive) | > 100 µM (inactive) | > 100 µM (inactive) | > 100 µM (inactive) | > 100 µM (inactive) | > 100 µM (inactive) | > 100 µM (inactive) | > 100 µM (inactive) | > 100 µM (inactive) | > 100 µM (inactive) | > 100 µM (inactive) | > 100 µM (inactive)
C/C(=N\Nc1nc2ccccc2s1)c1cccc[n+]1[O-] | 47 µM (inactive) | 23.2 µM (inactive) | 42.8 µM (inactive) | 17 µM (inactive) | 2.33 µM (inactive) | 34.2 µM | 30.1 µM (inactive) | 45.1 µM (inactive) | 36.2 µM (inactive) | 23.9 µM (inactive) | 32.8 µM (inactive) | 37.1 µM (inactive) | > 100 µM (inactive) | 32.7 µM (inactive) | 32.2 µM (inactive) | 2.33 µM (inactive) | 30.2 µM (inactive) | > 100 µM (inactive) | > 100 µM (inactive) | 24.8 µM (inactive)
Clc1nc(NC23CC4CC(CC(C4)C2)C3)nc(NC23CC4CC(CC(C4)C2)C3)n1 | 26.7 µM (inactive) | 12.6 µM (inactive) | 43.9 µM (inactive) | > 100 µM (inactive) | > 89.9 µM (inactive) | 34.7 µM | 41.2 µM (inactive) | > 75.9 µM (inactive) | > 83.4 µM (inactive) | 29 µM (inactive) | 47.3 µM (inactive) | > 34.8 µM (inactive) | > 100 µM (inactive) | 62.4 µM (inactive) | 73.1 µM (inactive) | > 100 µM (inactive) | 70.1 µM (inactive) | > 100 µM (inactive) | 19.3 µM (inactive) | 50.8 µM (inactive)
NCCN1C(=O)c2cc(Cl)c(Cl)cc2C1(O)c1ccc(Cl)cc1 (stereo not given) | 1.74 µM (inactive) | 1.83 µM (inactive) | 2.09 µM (inactive) | 1.92 µM (inactive) | 2.23 µM (inactive) | 2.4 µM | 2.32 µM (inactive) | 1.7 µM (inactive) | 2.32 µM (inactive) | 2.02 µM (inactive) | 1.6 µM (inactive) | 2.19 µM (inactive) | 1.75 µM (inactive) | 1.9 µM (inactive) | 1.77 µM (inactive) | 3.33 µM (inactive) | 2.03 µM (inactive) | 2.82 µM (inactive) | 1.84 µM (inactive) | 2.19 µM (inactive)
Nc1nc(Cl)cc(NCC2(CO)CCCC2)n1 | > 100 µM (inactive) | 75.2 µM (inactive) | > 100 µM (inactive) | > 100 µM (inactive) | > 100 µM (inactive) | > 100 µM | > 100 µM (inactive) | > 100 µM (inactive) | > 100 µM (inactive) | > 100 µM (inactive) | 80.4 µM (inactive) | > 100 µM (inactive) | > 100 µM (inactive) | > 100 µM (inactive) | > 100 µM (inactive) | > 100 µM (inactive) | > 100 µM (inactive) | > 100 µM (inactive) | > 100 µM (inactive) | > 100 µM (inactive)
CC(C)(C)[Si](C)(C)OCC1C=CC(n2cnc3c(N)ncnc32)O1 (stereo not given) | 32.1 µM (inactive) | 30.1 µM (inactive) | > 100 µM (inactive) | > 100 µM (inactive) | > 59.8 µM (inactive) | 53.1 µM | 59.2 µM (inactive) | > 47.4 µM (inactive) | 83.2 µM (inactive) | 15.1 µM (inactive) | 15.4 µM (inactive) | > 100 µM (inactive) | > 62.1 µM (inactive) | 21 µM (inactive) | 23.8 µM (inactive) | 72.8 µM (inactive) | 42.6 µM (inactive) | 94.2 µM (inactive) | 39.4 µM (inactive) | 24.1 µM (inactive)
